Experiments:
[1] = tested on: MAPK; experiment: MAPK phosphorylation in primary neurons (immunoblotting); format: cell-based, rat; conditions: 500 nM, time course
Experimental: Rat primary neurons were treated with 500 nM. 4′-DMA-7,8-DHF from various time points. The neuronal lysates were analyzed with various antibodies. 4′-DMA-7,8-DHF rapidly activated TrkB and its downstream signaling cascades (left panels). […] One mg/kg of 4′-DMA-7,8-DHF and 7,8-DHF were orally administrated into C57 BL/6J mice and TrkB phosphorylation and its downstream signaling cascades including Akt and MAPK in mouse brain were analyzed by immunoblotting at various time points. TrkB activation by 4′-DMA-7,8-DHF peaked at 4 h, whereas the maximal TrkB activation by 7,8-DHF in mouse brain occurred at 1-2 h (middle panels).
To compare the TrkB activation by these synthetic compounds, primary cortical cultures were prepared. Cortical neurons were treated with 500 nM of various compounds for 20 min and cell lysates were collected. […] Replacing the H-bond acceptor O atom with hydrogen bond donor NH abolishes its stimulatory effect. […] On the other hand, 7,8-DHF provoked TrkB activation with the minimal concentration of 100 nM (FIG. 2B, right panels). To further study 4′-DMA-7,8-DHF's kinetics on TrkB activation, primary neurons were treated for various time points. 4′-DMA-7,8-DHF swiftly activated TrkB as soon as 5 minutes following treatment. […] TrkB activation was monitored at different time points.

[2] = molecular target: T1, TrkB F616A (Mus musculus, UniProt P15209, F616A); experiment: Neuroprotection against KA in TrkB F616A knockin mice with or without 1NMPP1; format: in vivo; conditions: for KA-induced caspase-3 activation in TrkB F616A mice: 5 mg/kg oral 4 h before KA 20 mg/kg; for KA-induced caspase-3 activation in TrkB F616A mice / TrkB F616A activation (phosphorylation) in knockin mice: without 1NMPP1; for protective effect against KA in F616A mice after 1NMPP1 pretreatment: 5 mg/kg oral 4 h before KA, 1NMPP1 in drinking water; for TrkB phosphorylation in F616A mice after 1NMPP1 pretreatment / TrkB F616A activation (phosphorylation) in knockin mice: 5 mg/kg oral
T1 construct: from tissue; host or cells: TrkB F616A knock-in mice (brain; whole animal in the forced swim test)
T1 sequence (P15209 32-821 F616A): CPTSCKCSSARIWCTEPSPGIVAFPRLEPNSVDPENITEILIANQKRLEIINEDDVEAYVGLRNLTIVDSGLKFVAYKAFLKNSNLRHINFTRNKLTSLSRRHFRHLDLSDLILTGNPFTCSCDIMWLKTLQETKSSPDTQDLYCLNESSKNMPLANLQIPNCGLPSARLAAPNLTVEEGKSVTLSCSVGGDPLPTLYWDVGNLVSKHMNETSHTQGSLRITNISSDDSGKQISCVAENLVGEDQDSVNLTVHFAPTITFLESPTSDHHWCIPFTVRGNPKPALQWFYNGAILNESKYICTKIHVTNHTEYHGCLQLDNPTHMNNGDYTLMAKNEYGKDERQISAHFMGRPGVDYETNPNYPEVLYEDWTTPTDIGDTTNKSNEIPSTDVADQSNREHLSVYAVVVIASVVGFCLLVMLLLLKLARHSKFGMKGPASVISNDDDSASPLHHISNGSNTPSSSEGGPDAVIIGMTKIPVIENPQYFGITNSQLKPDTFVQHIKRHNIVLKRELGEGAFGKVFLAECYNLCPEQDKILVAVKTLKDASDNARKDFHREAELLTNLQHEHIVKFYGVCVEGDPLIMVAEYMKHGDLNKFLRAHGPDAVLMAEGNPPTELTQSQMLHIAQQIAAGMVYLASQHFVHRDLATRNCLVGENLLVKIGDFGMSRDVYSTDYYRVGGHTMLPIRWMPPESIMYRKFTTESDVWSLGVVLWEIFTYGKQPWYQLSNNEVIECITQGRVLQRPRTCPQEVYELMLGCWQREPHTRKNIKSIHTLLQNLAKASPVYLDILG
Experimental: 4′-DMA-7,8-DHF and 7,8-DHF suppressed KA-induced caspase-3 activation in TrkB F616A mutant knockin mice, which cannot be blocked by 1NMPP1 (top panel).
TrkB F616A knockin mice (2-3 months old) were fed with 1NMPP1 (25 mM) in drinking water one day before pharmacological reagent treatment. Next day, the mice were orally injected with 7,8-DHF or 4′-DMA-7,8-DHF (5 mg/kg) 4 h before kainic acid (20 mg/kg). The control mice were injected with saline, 1NMPP1, kainic acid alone or administrated 7,8-DHF or 4′-DMA-7,8-DHF 4 h before kainic acid. In 4 days, the mice were sacrificed and brains were homogenated and ultracentrafuged. The supernatant ([…]) was employed for SDS-PAGE and immunoblotting analysis with indicated antibodies, respectively.

Row | SMILES | time of peak MAPK phosphorylation [1] [min] | KA-induced caspase-3 activation in TrkB F616A mice [2] | protective effect against KA in F616A mice after 1NMPP1 pretreatment [2] | TrkB phosphorylation in F616A mice after 1NMPP1 pretreatment [2] | TrkB F616A activation (phosphorylation) in knockin mice [2]
1 | CN(C)c1ccc(-c2cc(=O)c3ccc(O)c(O)c3o2)cc1 [4′-DMA-7,8-DHF, 4′-dimethylamino-7,8-dihydroxyflavone] | 10 | markedly diminished | abolished | notably blocked by 1NMPP1 pretreatment | strongly activated
2 | O=c1cc(-c2ccccc2)oc2c(O)c(O)ccc12 [7,8-DHF, 7,8-dihydroxyflavone, reference compound] |  | markedly diminished | abolished | notably blocked by 1NMPP1 pretreatment | strongly activated
